# Laboratory results from patent US20260248918A1, “COMPOSITIONS AND METHODS OF SUPPRESSING AVERSIVENESS OF PHARMACEUTICALS AND INGESTIBLE MATERIALS” (Monell Chemical Senses Center, priority 2019, published 2026).
# Tested on: human subjects
# Assay: Human sensory testing (gLMS) of API bitterness with blocker, as pre-rinse or admixture
# Type: in vivo
# Excerpt: Methods of evaluating the sensory properties of the API and admixtures with the blocker compounds of Formula A are adopted from Breslin PA, and Tharp CD, “Reduction of saltiness and bitterness after a chlorhexidine rinse,” Chem Senses. 2001 February; 26(2):105-16. More details are illustrated below.
# Subjects participate in the study after providing informed consent. Gender of the subjects is balanced between male and female. The subjects are adults with ages ranging from 20 years old to 50 years old. […] The participants are asked to refrain from eating, drinking, or chewing gum for 1 hr prior to testing. Subjects are trained to use the General Labeled Magnitude Scale (gLMS) following standard published procedures. See. e.g., Breslin P A, and Tharp C D. “Reduction of saltiness and bitterness after a chlorhexidine rinse,” Chem Senses. 2001 February; 26(2): 105-16; Keast and Breslin, “Bitterness suppression with zinc sulfate and Na-cyclamate: a model of combined peripheral and central neural approaches to flavor modification.” Pharm Res. 2005 November; 22(11):1970-7. Epub 2005 Aug. 26; Green et al, “Evaluating the ‘Labeled Magnitude Scale’ for measuring sensations of taste and smell.” Chem Senses. 1996 June; 21(3):323-34; Barry G. Green, et al, “Derivation and evaluation of a semantic scale of oral sensation magnitude with apparent ratio properties,” Chemical Senses, Volume 18, Issue 6, 1 Dec. 1993, Pages 683-702; and Bartoshuk L M, “Comparing sensory experiences across individuals: recent psychophysical advances illuminate genetic variation in taste perception.” Chem Senses. 2000 August; 25(4):447-60.
# The selected API (in racemic or L form as applicable) is diluted/dissolved in deionized (di) filtered water upon use into various concentrations. […] The API is prepared and dissolved in deionized filtered water or in […] 6-methylflavone to a final concentration. All solutions are stored on ice or at 4° C. to 8° C. and brought up to room temperature prior to testing.
# The following testing protocol is performed. The tested solutions are provided to the subjects in random order. Subjects rinsed with di water at least four times over a 2-minute period prior to tasting each solution. The subjects are instructed to wear nose clips to eliminate olfactory input, pour the whole solution in their mouth for 3-5 seconds, and rate the perceived sensation (including bitterness, sourness, astringency, burning, stinging and nausea) intensity of the solution while it remained in the mouth, prior to expectorating. Taste intensity is recorded on a computerized gLMS, analyzed and plotted.
smiles,measurement,setting,value
Cc1ccc2oc(-c3ccccc3)cc(=O)c2c1 [6-methylflavone],Blocking the bitter taste of piperaquine and TAF,"admixture, subset of human subjects",effective antagonist
same,Suppression of TAF bitterness,"another subject, FIGS. 11A/11B, 0.5 mg/mL TAF, pre-rinse then admixture, blocker 100 μM",worked
same,Suppression of TAF bitterness,"another subject, FIGS. 11A/11B, 0.5 mg/mL TAF, pre-rinse then admixture, blocker 1 mM",worked even better
same,Suppression of TAF bitterness,"one subject, FIGS. 8A/8B, 0.5 mg/mL TAF with and without 100 μM blocker",significant suppression
same,Suppression of TAF bitterness,"one subject, FIGS. 9A/9B, 0.5 mg/mL TAF alone vs pre-rinse vs pre-rinse containing 100 μM blocker",did not show significant suppression
same,Suppression of TAF bitterness,"one subject, FIGS. 10A/10B, 0.5 mg/mL TAF, pre-rinse then admixture, blocker 100 μM",no bitterness suppression
same,Average perceived bitterness intensity of piperaquine,"piperaquine 8 mg/mL treated with 100 μM blocker, FIG. 6",affected
same,Blocking effect for TAF and piperaquine with added pre-rinse,"pre-rinse with the blocker added, compared with admixture alone",stronger
